Source: US10059655B2, “Lipids and lipid compositions for the delivery of active agents” (priority 2013, dated 2018)

Assay: Measurement of mRNA encapsulation in lipid nanoparticles (Quant-iT Ribogreen)
Format: physicochemical
Settings: Leptin mRNA in LNP
Procedure: All equipment and disposable supplies are certified free of RNase activity by the manufacturer or rendered RNase free by use of the RNaseZap reagent (LifeTechnologies). mRNA is encapsulated at a cationic lipid amine to mRNA phosphate (N:P) molar ratio of 4:1. Lipids (cationic lipid, DSPC, cholesterol and lipidated PEG or stealth lipid) are dissolved in ethanol. The molar ratios are 40:10:38:2, respectively. The mixture is sonicated briefly, then gently agitated for 5 minutes and then maintained at 37° C. until use. mRNA is exchanged into citrate buffer pH 5.8-6.0 by use of Amicon Ultra-15 centrifugal concentrators, and the final concentration is adjusted to 0.5 mg/ml and held at 37° C. until use. An equal volume of lipids in ethanol, mRNA in citrate buffer, and citrate buffer alone are drawn into disposable syringes.
Tubing leading from syringes containing lipids and mRNA are attached to the T junction, and tubing leading from the syringe containing citrate buffer alone is paired with the tubing exiting the T-junction over a collection vessel containing a stir bar on an active stir plate. Syringes are placed in a syringe pump set to expel contents at a flow rate of 1 ml per minute. The pump is activated, and the collected mRNA in lipid nanoparticles is transferred to SnakeSkin dialysis tubing (10,000 MWCO, Thermo Scientific). Material is dialyzed against RNAse- and pyrogen-free 1× phosphate buffered saline overnight at 4° C.
Percent encapsulation of mRNA in lipid nanoparticles is determined using the Quant-iT Ribogreen RNA Assay kit (Life Technologies). The LNP-mRNA suspension is assayed in buffer (mRNA outside the particle), and buffer plus Triton X-100 detergent (total mRNA). The difference calculated is the mRNA inside the particle. Prepare a 1000 ng/mL stock from the RNA provided in the kit and use this to generate a standard curve (0 ng/ml, 15.63-1000 ng/ml) in TE and TE+0.75% Triton X-100. Prepare LNP-mRNA samples in TE buffer and TE buffer+0.75% Triton X-100 with appropriate dilution so that reading is in the range of standard curve (400-2,000 fold). In a 384-well plate (Costar non-treated #3573) add 0.04 ml of standard (in duplicate) or sample (in triplicate) per well. Dilute Ribogreen reagent 240-fold in TE buffer and add 0.06 ml per well. Mix contents of wells and measure fluorescence (excitation=480 nm, emission=520 nm). Subtract background values (no RNA) from standard and test sample values and determine the concentrations of RNA in the samples using the standard curves. Determine the percent encapsulation of the sample by dividing the difference in concentrations between sample+triton and sample in buffer alone by the sample+triton concentration.

SMILES | % encapsulation mRNA Leptin
CCCCC/C=C\C/C=C\CCCCCCCC(=O)OCC(COC(=O)CCCCCCC/C=C\C/C=C\CCCCC)COC(=O)CCN1CCN(C)CC1 [Example 2, (9Z,9′Z,12Z,12′Z)-2-(((3-(4-methylpiperazin-1-yl)propanoyl)oxy)methyl)propane-1,3-diyl bis(octadeca-9,12-dienoate)] | 70.5%
CCCCCCCCOC(CCC(=O)OCC(COC(=O)CCC(OCCCCCCCC)OCCCCCCCC)COC(=O)C1(C)CCN(C)C1)OCCCCCCCC (centres unmarked) [Example 58, 2-(((1,3-dimethylpyrrolidine-3-carbonyl)oxy)methyl)propane-1,3-diyl bis(4,4-bis(octyloxy)butanoate)] | 86.0%
CCCCC/C=C\C/C=C\CCCCCCCC(=O)OCC(COC(=O)CCC(OCCCCCCCC)OCCCCCCCC)COC(=O)OC1CC(C)(C)N(C)C(C)(C)C1 (centres unmarked) [Example 52, (9Z,12Z)-3-((4,4-bis(octyloxy)butanoyl)oxy)-2-(((((1,2,2,6,6-pentamethylpiperidin-4-yl)oxy)carbonyl)oxy)methyl)propyl octadeca-9,12-dienoate] | 32.2%
CCCCC/C=C\C/C=C\CCCCCCCC(=O)OCC(COC(=O)CCC(OCCCCCCCC)OCCCCCCCC)COC(=O)NCCCN(C)C (centres unmarked) [Example 53, (9Z,12Z)-3-((4,4-bis(octyloxy)butanoyl)oxy)-2-((((3-(dimethylamino)propyl)carbamoyl)oxy)methyl)propyl octadeca-9,12-dienoate] | 93.5%
CCCCC/C=C\C/C=C\CCCCCCCC(=O)OCC(COC(=O)CCC(OCCCCCCCC)OCCCCCCCC)COC(=O)C1CCCN(C)C1 (centres unmarked) [Example 42, 3-((4,4-bis(octyloxy)butanoyl)oxy)-2-(((9Z,12Z)-octadeca-9,12-dienoyloxy)methyl)propyl 1-methylpiperidine-3-carboxylate] | 90.3%
CCCCCCCCCCCCC(CCOC(=O)OCC(COC(=O)CCCCCCC(=O)OC)COC(=O)CCC(OCCCCCCCC)OCCCCCCCC)OC(=O)OCCCN(C)C (centres unmarked) [Example 70, 1-(16-(((4,4-bis(octyloxy)butanoyl)oxy)methyl)-9-dodecyl-2-methyl-7,13-dioxo-6,8,12,14-tetraoxa-2-azaheptadecan-17-yl) 8-methyl octanedioate] | 92.1%
CCCCCCCCCCCCCC(=O)OCC(COC(=O)CCCCC(COC(=O)CCCCCCC)COC(=O)CCCCCCC)COC(=O)C1CCN(C)C1 (centres unmarked) [Example 64, 2-(5-(3-((1-methylpyrrolidine-3-carbonyl)oxy)-2-((tetradecanoyloxy)methyl)propoxy)-5-oxopentyl)propane-1,3-diyl dioctanoate] | 87.9%
CCCCC/C=C\C/C=C\CCCCCCCC(=O)OCC(COC(=O)CCCCCC(CCCCCC)CCCCCC)COC(=O)OCCCN(CC)CC (centres unmarked) [Example 23, (9Z,12Z)-3-(((3-(diethylamino)propoxy)carbonyl)oxy)-2-(((7-hexyltridecanoyl)oxy)methyl)propyl octadeca-9,12-dienoate] | 82.0%
CCCCC/C=C\C/C=C\CCCCCCCC(=O)OCC(COC(=O)CCC(OCCCCCCCC)OCCCCCCCC)COC(=O)C1CCN(C)CC1 (centres unmarked) [Example 41, 3-((4,4-bis(octyloxy)butanoyl)oxy)-2-(((9Z,12Z)-octadeca-9,12-dienoyloxy)methyl)propyl 1-methylpiperidine-4-carboxylate] | 97.5%
CCCCC/C=C\C/C=C\CCCCCCCC(=O)OCC(COC(=O)CCCCCCCCC(=O)OCCCCCCCC)COC(=O)C1(C)CCN(C)C1 (centres unmarked) [Example 56, 1-(3-((1,3-dimethylpyrrolidine-3-carbonyl)oxy)-2-(((9Z,12Z)-octadeca-9,12-dienoyloxy)methyl)propyl) 10-octyl decanedioate] | 83.3%
CCCCC/C=C\C/C=C\CCCCCCCC(=O)OCC(COC(=O)CCC(OCCCCCCCC)OCCCCCCCC)COC(=O)OCCCN1CCN(C)CC1 (centres unmarked) [Example 46, (9Z,12Z)-3-((4,4-bis(octyloxy)butanoyl)oxy)-2-((((3-(4-methylpiperazin-1-yl)propoxy)carbonyl)oxy)methyl)propyl octadeca-9,12-dienoate] | 63.5%
CCCCC/C=C\C/C=C\CCCCCCCC(=O)OCC(COC(=O)CCCCCCC/C=C\C/C=C\CCCCC)COC(=O)CCN1CCOCC1 [Example 10, (9Z,9′Z,12Z,12′Z)-2-(((3-morpholinopropanoyl)oxy)methyl)propane-1,3-diyl bis(octadeca-9,12-dienoate)] | 1.9%
CCCCC/C=C\C/C=C\CCCCCCCC(=O)OCC(COC(=O)CCC(OCCCCCCCC)OCCCCCCCC)COC(=O)C1CCN(C(C)C)CC1 (centres unmarked) [Example 33, 3-((4,4-bis(octyloxy)butanoyl)oxy)-2-(((9Z,12Z)-octadeca-9,12-dienoyloxy)methyl)propyl 1-isopropylpiperidine-4-carboxylate] | 97.4%
CCCCC/C=C\C/C=C\CCCCCCCC(=O)OCC(COC(=O)CCC(OCCCCCCCC)OCCCCCCCC)COC(=O)c1ccc(CN(CC)CC)cc1 (centres unmarked) [Example 44, 3-((4,4-bis(octyloxy)butanoyl)oxy)-2-(((9Z,12Z)-octadeca-9,12-dienoyloxy)methyl)propyl 4-((diethylamino)methyl)benzoate] | 22.4%
CCCCCCCCOC(CCC(=O)OCC(COC(=O)CCCCCCC(=O)OC)COC(=O)C1CCN(C)C1)OCCCCCCCC (centres unmarked) [Example 68, 1-(3-((4,4-bis(octyloxy)butanoyl)oxy)-2-(((1-methylpyrrolidine-3-carbonyl)oxy)methyl)propyl) 8-methyl octanedioate] | 5.9%
CCCCC/C=C\C/C=C\CCCCCCCC(=O)OCC(COC(=O)CCC(OCCCCCCCC)OCCCCCCCC)COC(=O)OCCCN1CCCC1 (centres unmarked) [Example 45, (9Z,12Z)-3-((4,4-bis(octyloxy)butanoyl)oxy)-2-((((3-(pyrrolidin-1-yl)propoxy)carbonyl)oxy)methyl)propyl octadeca-9,12-dienoate] | 84.4%
CCCCCCCCOC(=O)CCCCCCCCC(=O)OCC(COC(=O)CCCCC(OCC(CCC)CCC)OCC(CCC)CCC)COC(=O)C1(C)CCN(C)CC1 (centres unmarked) [Example 71, 1-(3-((6,6-bis((2-propylpentyl)oxy)hexanoyl)oxy)-2-(((1,4-dimethylpiperidine-4-carbonyl)oxy)methyl)propyl) 10-octyl decanedioate] | 96.5%
CCCCC/C=C\C/C=C\CCCCCCCC(=O)OCC(COC(=O)CCCCCCC/C=C\C/C=C\CCCCC)COC(=O)CCCN(C)C [Example 11, (9Z,9′Z,12Z,12′Z)-2-(((4-(dimethylamino)butanoyl)oxy)methyl)propane-1,3-diyl bis(octadeca-9,12-dienoate)] | 45.4%
COC(=O)CCCCCCC(=O)OCC(COC(=O)CCCCCCC(=O)OC)COC(=O)C1CCN(C)C1 (centres unmarked) [Example 73, 8-dimethyl O′1,O1-(2-(((1-methylpyrrolidine-3-carbonyl)oxy)methyl)propane-1,3-diyl)dioctanedioate] | 9.3%
CCCCC/C=C\C/C=C\CCCCCCCC(=O)OCC(COC(=O)CCC(OCCCCCCCC)OCCCCCCCC)COC(=O)OCC1CCN(C)CC1 (centres unmarked) [Example 51, (9Z,12Z)-3-((4,4-bis(octyloxy)butanoyl)oxy)-2-(((((1-methylpiperidin-4-yl)methoxy)carbonyl)oxy)methyl)propyl octadeca-9,12-dienoate] | 82.3%
CCCCC/C=C\C/C=C\CCCCCCCC(=O)OCC(COC(=O)CCC(OCCCCCCCC)OCCCCCCCC)COC(=O)[C@H]1CCCN1C (stereo partly drawn) [Example 38, (2R)-3-((4,4-bis(octyloxy)butanoyl)oxy)-2-(((9Z,12Z)-octadeca-9,12-dienoyloxy)methyl)propyl 1-methylpyrrolidine-2-carboxylate] | 9.6%
CCCCCCCCOC(CCCCC(=O)OCC(COC(=O)CCCCC(OCCCCCCCC)OCCCCCCCC)COC(=O)C1CCN(C)C1)OCCCCCCCC (centres unmarked) [Example 60, 2-(((1-methylpyrrolidine-3-carbonyl)oxy)methyl)propane-1,3-diyl bis(6,6-bis(octyloxy)hexanoate)] | 89.1%
CCCCC/C=C\C/C=C\CCCCCCCC(=O)OCC(COC(=O)CCC(OCCCCCCCC)OCCCCCCCC)COC(=O)OC1CCN(CC)CC1 (centres unmarked) [Example 50, (9Z,12Z)-3-((4,4-bis(octyloxy)butanoyl)oxy)-2-(((((1-ethylpiperidin-4-yl)oxy)carbonyl)oxy)methyl)propyl octadeca-9,12-dienoate] | 83.9%
